Laboratory results from ChEMBL document CHEMBL1124763, “Nucleoside conjugates. 11. Synthesis and antitumor activity of 1-beta-D-arabinofuranosylcytosine and cytidine conjugates of thioether lipids” (1990).

Columns and labels:
Mus musculus [1] = assay: Increase of life span was determined against Ip implanted L1210 / ara-C lymphoid leukemia in mice at a dose of 167 mg/kg per day; format: functional; details: route intraperitoneal
Mus musculus [2] = assay: Increase of life span was determined against Ip implanted L1210 / ara-C lymphoid leukemia in mice at a dose of 300 mg/kg per day; format: functional; details: route intraperitoneal
Mus musculus [3] = assay: Increase of life span was determined against Ip implanted L1210 / ara-C lymphoid leukemia in mice at a dose of 60 mg/kg per day; format: functional; details: route intraperitoneal
Mus musculus [4] = assay: Increase of life span was determined against Ip implanted L1210 / 0 lymphoid leukemia in mice at a dose of 100 mg/kg per day after treatment 1-5; format: functional; details: L1210/0, ip, route intraperitoneal
Mus musculus [5] = assay: Increase of life span was determined against Ip implanted L1210 / 0 lymphoid leukemia in mice at a dose of 300 mg/kg per day after treatment 1; format: functional; details: L1210/0, ip, route intraperitoneal
Mus musculus [6] = assay: Range of survival days for antitumor activity against Ip implanted L1210 / 0 lymphoid leukemia in mice at a dose of 60 mg/kg per day after treatment 1-5;range is 16-37; format: functional; details: route intraperitoneal
Mus musculus [7] = assay: Increase of life span was determined against Ip implanted L1210 / 0 lymphoid leukemia in mice at a dose of 300 mg/kg per day after treatment 5; format: functional; details: L1210/0, ip, route intraperitoneal
Mus musculus [8] = assay: Range of survival days for antitumor activity against Ip implanted L1210 / ara-C lymphoid leukemia in mice at a dose of 167 mg/kg per day; format: functional; details: route intraperitoneal
Mus musculus [9] = assay: Range of survival days for antitumor activity against Ip implanted L1210 / ara-C lymphoid leukemia in mice at a dose of 300 mg/kg per day; format: functional; details: route intraperitoneal
Mus musculus [10] = assay: Range of survival days for antitumor activity against Ip implanted L1210 / ara-C lymphoid leukemia in mice at a dose of 60 mg/kg per day; format: functional; details: route intraperitoneal
Mus musculus [11] = assay: Increase of life span was determined against Ip implanted L1210 / 0 lymphoid leukemia in mice at a dose of 400 mg/kg per day after treatment 1; format: functional; details: L1210/0, ip, route intraperitoneal
Mus musculus [12] = assay: Increase of life span was determined against Ip implanted L1210 / 0 lymphoid leukemia in mice at a dose of 400 mg/kg per day after treatment 5; format: functional; details: L1210/0, ip, route intraperitoneal
Mus musculus [13] = assay: Increase of life span was determined against Ip implanted L1210 / 0 lymphoid leukemia in mice at a dose of 60 mg/kg per day after treatment 1-5; format: functional; details: L1210/0, ip, route intraperitoneal
Mus musculus [14] = assay: Range of survival days for antitumor activity against Ip implanted L1210 / 0 lymphoid leukemia in mice at a dose of 100 mg/kg per day after treatment 1-5;range is 14->45; format: functional; details: route intraperitoneal
Mus musculus [15] = assay: Range of survival days for antitumor activity against Ip implanted L1210 / 0 lymphoid leukemia in mice at a dose of 300 mg/kg per day after treatment 1;range is 18-30; format: functional; details: route intraperitoneal
Mus musculus [16] = assay: Range of survival days for antitumor activity against Ip implanted L1210 / 0 lymphoid leukemia in mice at a dose of 400 mg/kg per day after treatment 1;range is 16->45; format: functional; details: route intraperitoneal
Mus musculus [17] = assay: Survival time treated / survival time (T/C) for antitumor activity against Ip implanted L1210 / 0 lymphoid leukemia in mice at a dose of 300 mg/kg per day after treatment 1;25/7; format: functional; details: route intraperitoneal
Mus musculus [18] = assay: Survival time treated / survival time (T/C) for antitumor activity against Ip implanted L1210 / 0 lymphoid leukemia in mice at a dose of 100 mg/kg per day after treatment 1-5;36.5/8; format: functional; details: route intraperitoneal
Mus musculus [19] = assay: Survival time treated / survival time (T/C) for antitumor activity against Ip implanted L1210 / 0 lymphoid leukemia in mice at a dose of 300 mg/kg per day after treatment 5;17/8; format: functional; details: route intraperitoneal
Mus musculus [20] = assay: Survival time treated / survival time (T/C) for antitumor activity against Ip implanted L1210 / 0 lymphoid leukemia in mice at a dose of 400 mg/kg per day after treatment 1;27.5/7; format: functional; details: route intraperitoneal
Mus musculus [21] = assay: Survival time treated / survival time (T/C) for antitumor activity against Ip implanted L1210 / 0 lymphoid leukemia in mice at a dose of 400 mg/kg per day after treatment 5;16.5/8; format: functional; details: route intraperitoneal
Mus musculus [22] = assay: Survival time treated / survival time (T/C) for antitumor activity against Ip implanted L1210 / 0 lymphoid leukemia in mice at a dose of 60 mg/kg per day after treatment 1-5;26.5/8; format: functional; details: route intraperitoneal
Mus musculus [23] = assay: Survival time treated/survival time tested (T/C) for antitumor activity against Ip implanted L1210 / ara-C lymphoid leukemia in mice at a dose of 300 mg/kg per day; format: functional; details: route intraperitoneal
Mus musculus [24] = assay: Survival time treated/survival time tested (T/C) for antitumor activity against Ip implanted L1210 / ara-C lymphoid leukemia in mice at a dose of 60 mg/kg per day; format: functional; details: route intraperitoneal
Mus musculus [25] = assay: Survival time treated/survival time tested (T/C) for antitumor activity against Ip implanted L1210 / ara-C lymphoid leukemia in mice at a dose of 167 mg/kg per day; format: functional; details: route intraperitoneal
Mus musculus [26] = assay: Range of survival days for antitumor activity against Ip implanted L1210 / 0 lymphoid leukemia in mice at a dose of 300 mg/kg per day after treatment 5;range is 15-21; format: functional; details: route intraperitoneal
Mus musculus [27] = assay: Range of survival days for antitumor activity against Ip implanted L1210 / 0 lymphoid leukemia in mice at a dose of 400 mg/kg per day after treatment 5;[…]; format: functional; details: route intraperitoneal
Mus musculus [28] = assay: Increase of life span was determined against Ip implanted L1210 / 0 lymphoid leukemia in mice at a dose of 100 mg/kg per day after treatment 1; format: functional; details: L1210/0, ip, route intraperitoneal
Mus musculus [29] = assay: Increase of life span was determined against Ip implanted L1210 / 0 lymphoid leukemia in mice at a dose of 200 mg/kg per day after treatment 1; format: functional; details: L1210/0, ip, route intraperitoneal
Mus musculus [30] = assay: Range of survival days for antitumor activity against Ip implanted L1210 / 0 lymphoid leukemia in mice at a dose of 100 mg/kg per day after treatment 1; range is 9-10; format: functional; details: route intraperitoneal
Mus musculus [31] = assay: Range of survival days for antitumor activity against Ip implanted L1210 / 0 lymphoid leukemia in mice at a dose of 200 mg/kg per day after treatment 1; range is 4-12; format: functional; details: route intraperitoneal
Mus musculus [32] = assay: Survival time treated / survival time (T/C) for antitumor activity against Ip implanted L1210 / 0 lymphoid leukemia in mice at a dose of 200 mg/kg per day after treatment 1;7.5/8; format: functional; details: route intraperitoneal
Mus musculus [33] = assay: Survival time treated / survival time (T/C) for antitumor activity against Ip implanted L1210 / 0 lymphoid leukemia in mice at a dose of 100 mg/kg per day after treatment 1;9.5/8; format: functional; details: route intraperitoneal
Mus musculus [34] = assay: Range of survival days for antitumor activity against Ip implanted L1210 / 0 lymphoid leukemia in mice at a dose of 80 mg/kg per day after treatment 1-5; range is 14-19; format: functional; details: route intraperitoneal
Mus musculus [35] = assay: Increase of life span was determined against Ip implanted L1210 / 0 lymphoid leukemia in mice at a dose of 80 mg/kg per day after treatment 1-5; format: functional; details: L1210/0, ip, route intraperitoneal
Mus musculus [36] = assay: Range of survival days for antitumor activity against Ip implanted L1210 / 0 lymphoid leukemia in mice at a dose of 100 mg/kg per day after treatment 1- 5; range is 15-32; format: functional; details: route intraperitoneal
Mus musculus [37] = assay: Range of survival days for antitumor activity against Ip implanted L1210 / 0 lymphoid leukemia in mice at a dose of 400 mg/kg per day after treatment 1; range is 11-15; format: functional; details: route intraperitoneal
Mus musculus [38] = assay: Survival time treated / survival time (T/C) for antitumor activity against Ip implanted L1210 / 0 lymphoid leukemia in mice at a dose of 100 mg/kg per day after treatment 1-5;21.5/8; format: functional; details: route intraperitoneal
Mus musculus [39] = assay: Survival time treated / survival time (T/C) for antitumor activity against Ip implanted L1210 / 0 lymphoid leukemia in mice at a dose of 400 mg/kg per day after treatment 1;14/8; format: functional; details: route intraperitoneal
Mus musculus [40] = assay: Survival time treated / survival time (T/C) for antitumor activity against Ip implanted L1210 / 0 lymphoid leukemia in mice at a dose of 80 mg/kg per day after treatment 1-5;16/8; format: functional; details: route intraperitoneal
Mus musculus [41] = assay: Increase of life span was determined against Ip implanted L1210 / 0 lymphoid leukemia in mice at a dose of 200 mg/kg per day after treatment 1-5; format: functional; details: L1210/0, ip, route intraperitoneal
Mus musculus [42] = assay: Range of survival days for antitumor activity against Ip implanted L1210 / 0 lymphoid leukemia in mice at a dose of 400 mg/kg per day after treatment 1; range is 8-10; format: functional; details: route intraperitoneal
Mus musculus [43] = assay: Range of survival days for antitumor activity against Ip implanted L1210 / 0 lymphoid leukemia in mice at a dose of 400 mg/kg per day after treatment 5; format: functional; details: route intraperitoneal
Mus musculus [44] = assay: Range of survival days for antitumor activity against Ip implanted L1210 / 0 lymphoid leukemia in mice at a dose of 200 mg/kg per day after treatment 1-5; range is 15-17; format: functional; details: route intraperitoneal
Mus musculus [45] = assay: Survival time treated for antitumor activity against Ip implanted L1210 / 0 lymphoid leukemia in mice at a dose of 400 mg/kg per day after treatment 1;8/7; details: route intraperitoneal
Mus musculus [46] = assay: Survival time treated for antitumor activity against Ip implanted L1210 / 0 lymphoid leukemia in mice at a dose of 400 mg/kg per day after treatment 5;10/7; details: route intraperitoneal
Mus musculus [47] = assay: Survival time treated for antitumor activity against Ip implanted L1210 / 0 lymphoid leukemia in mice at a dose of 200 mg/kg per day after treatment 1-5;16/7; details: route intraperitoneal

In the case of CCCCCCCCCCCCCCCCSCC(COP(=O)(O)OP(=O)(O)OC[C@H]1OC(n2ccc(N)nc2=O)[C@@H](O)[C@@H]1O)OC(=O)CCCCCCCCCCCCCCC (mixture of isomers), the ILS at 167 mg/kg/day (Mus musculus [1]) is reported as 310%, the ILS at 300 mg/kg/day (Mus musculus [2]) is reported as greater than 400% and the ILS at 60 mg/kg/day (Mus musculus [3]) is reported as greater than 356%. The ILS at 100 mg/kg/day (Mus musculus [4]) was 356%, the ILS at 300 mg/kg/day (Mus musculus [5]) was 257% and the “Range of survival days” value (Mus musculus [6]) was 16. For the same compound, the ILS at 300 mg/kg/day (Mus musculus [7]) was 113%, the Range (Mus musculus [8]) was greater than 7 and the Range (Mus musculus [9]) was greater than 45. It also gave a Range (Mus musculus [10]) greater than 29, an ILS at 400 mg/kg/day (Mus musculus [11]) of 293% and an ILS at 400 mg/kg/day (Mus musculus [12]) of 106%. For the same compound, the ILS at 60 mg/kg/day (Mus musculus [13]) was 231%, the “Range of survival days” value (Mus musculus [14]) was greater than 14 and the “Range of survival days” value (Mus musculus [15]) was 18. For the same compound, the “Range of survival days” value (Mus musculus [16]) was greater than 16, the T/C (Mus musculus [17]) was 25 and the T/C (Mus musculus [18]) was 36.5. The T/C (Mus musculus [19]) was 17, the T/C (Mus musculus [20]) was 27.5 and the T/C (Mus musculus [21]) was 16.5. It also gave a T/C (Mus musculus [22]) of 26.5, a T/C (Mus musculus [23]) greater than 45 and a T/C (Mus musculus [24]) greater than 41. The T/C (Mus musculus [25]) was 41, the “Range of survival days” value (Mus musculus [26]) was 15 and the “Range of survival days” value (Mus musculus [27]) was 15.

For CCCCCCCCCCCCCCCCCCSCC(COP(=O)(O)OP(=O)(O)OC[C@H]1OC(n2ccc(N)nc2=O)[C@@H](O)[C@@H]1O)OCC (mixture of isomers), the ILS at 100 mg/kg/day (Mus musculus [28]) was 19%, the ILS at 200 mg/kg/day (Mus musculus [29]) was -6% and the “Range of survival days” value (Mus musculus [30]) was 9. For the same compound, the “Range of survival days” value (Mus musculus [31]) was 4, the T/C (Mus musculus [32]) was 7.5 and the T/C (Mus musculus [33]) was 9.5.

With CCCCCCCCCCCCCCCCCCSCC(COP(=O)(O)OP(=O)(O)OC[C@H]1OC(n2ccc(N)nc2=O)[C@@H](O)[C@@H]1O)OCCCCCCCCCCCCCCCC (mixture of isomers) the ILS at 100 mg/kg/day (Mus musculus [4]) was 169%, the “Range of survival days” value (Mus musculus [34]) was 14 and the ILS at 400 mg/kg/day (Mus musculus [11]) was 75%. For the same compound, the ILS at 80 mg/kg/day (Mus musculus [35]) was 100%, the “Range of survival days” value (Mus musculus [36]) was 15 and the “Range of survival days” value (Mus musculus [37]) was 11. The T/C (Mus musculus [38]) was 21.5, the T/C (Mus musculus [39]) was 14 and the T/C (Mus musculus [40]) was 16.

For Nc1ccn([C@@H]2O[C@H](CO)[C@@H](O)[C@@H]2O)c(=O)n1 [CYTARABINE], the ILS at 200 mg/kg/day (Mus musculus [41]) was 129%, the ILS at 400 mg/kg/day (Mus musculus [11]) was 14% and the ILS at 400 mg/kg/day (Mus musculus [12]) was 43%. For the same compound, the “Range of survival days” value (Mus musculus [42]) was 8, the “Range of survival days” value (Mus musculus [43]) was 10 and the “Range of survival days” value (Mus musculus [44]) was 15. The survival time (Mus musculus [45]) was 8 days, the survival time (Mus musculus [46]) was 10 days and the survival time (Mus musculus [47]) was 16 days.
